Measured values published in patent US10150760B2, “Compounds for use in preparing heterocyclic triazole agonists of the APJ receptor” (AMGEN INC., priority 2016, dated 2018).

Target: human APJ receptor (Homo sapiens (Human), UniProt P35414)
Test: [35S]GTPγS binding assay on membranes from CHO cells stably expressing human APJ receptor
Format: biochemical
Conditions: read-out: Activity hAPJ SPA EC50 IP
Method in brief: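 Agonist-driven [35S]GTPγS (0.2 nM) binding was measured over 90 min at room temperature on human APJ-expressing CHO membranes with bead capture, in buffer containing 3 μM GDP, 200 mM NaCl and 5 mM MgCl2 (pH 7.5). Excess unlabelled GTPγS (100 μM) gave nonspecific signal; EC50 from non-linear fits.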

Chain of human APJ receptor (P35414 whole entry): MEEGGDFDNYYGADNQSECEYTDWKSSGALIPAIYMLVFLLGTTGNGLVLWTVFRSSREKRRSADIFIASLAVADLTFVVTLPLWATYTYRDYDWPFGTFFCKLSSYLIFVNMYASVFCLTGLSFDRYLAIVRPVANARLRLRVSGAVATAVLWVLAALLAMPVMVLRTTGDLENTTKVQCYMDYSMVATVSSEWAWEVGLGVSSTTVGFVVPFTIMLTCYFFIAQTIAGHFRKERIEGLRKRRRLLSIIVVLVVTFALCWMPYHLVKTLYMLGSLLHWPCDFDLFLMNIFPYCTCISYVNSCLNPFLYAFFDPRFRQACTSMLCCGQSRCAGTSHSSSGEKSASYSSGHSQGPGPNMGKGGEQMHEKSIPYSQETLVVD

(1S,2S)-1-(5-chloropyrimidin-2-yl)-1-isopropoxy-N-(4-(1-(methoxymethyl)cyclopropyl)-5-((R)-tetrahydrofuran-3-yl)-4H-1,2,4-triazol-3-yl)propane-2-sulfonamide or (1S,2S)-1-(5-chloropyrimidin-2-yl)-1-isopropoxy-N-(4-(1-(methoxymethyl)cyclopropyl)-5-((S)-tetrahydrofuran-3-yl)-4H-1,2,4-triazol-3-yl)propane-2-sulfonamide [Example 320.0]
EC50: 0.045 µM

CO[C@H](c1ncc(Cl)cn1)[C@H](C)S(=O)(=O)Nc1nnc([C@H]2COCCO2)n1C(C)C (single isomer, unassigned) [Example 302.0, (1R,2S)-N-(5-((S)-1,4-dioxan-2-yl)-4-isopropyl-4H-1,2,4-triazol-3-yl)-1-(5-chloropyrimidin-2-yl)-1-methoxypropane-2-sulfonamide or (1R,2S)-N-(5-((R)-1,4-dioxan-2-yl)-4-isopropyl-4H-1,2,4-triazol-3-yl)-1-(5-chloropyrimidin-2-yl)-1-methoxypropane-2-sulfonamide]
EC50: 0.71 µM

(2S,3R)-N-(4-(2,6-dimethoxyphenyl)-5-((S)-tetrahydrothiophen-2-yl)-4H-1,2,4-triazol-3-yl)-3-(5-methylpyrimidin-2-yl)butane-2-sulfonamide or (2S,3R)-N-(4-(2,6-dimethoxyphenyl)-5-((R)-tetrahydrothiophen-2-yl)-4H-1,2,4-triazol-3-yl)-3-(5-methylpyrimidin-2-yl)butane-2-sulfonamide [Example 224.0]
EC50: 0.0015 µM

COc1cccc(OC)c1-n1c(NS(=O)(=O)[C@@H](C)[C@H](C)c2ncc(C)cn2)nnc1[C@@H]1CCCN(C)C1 (single isomer, unassigned) [Example 269.0, (2S,3R)-N-(4-(2,6-dimethoxyphenyl)-5-((R)-1-methylpiperidin-3-yl)-4H-1,2,4-triazol-3-yl)-3-(5-methylpyrimidin-2-yl)butane-2-sulfonamide or (2S,3R)-N-(4-(2,6-dimethoxyphenyl)-5-((S)-1-methylpiperidin-3-yl)-4H-1,2,4-triazol-3-yl)-3-(5-methylpyrimidin-2-yl)butane-2-sulfonamide]
EC50: 0.42 µM

COc1cccc(OC)c1-n1c(NS(=O)(=O)[C@@H](C)[C@@H](OC(C)C)c2ncc(C)cn2)nnc1[C@H]1CCOC1 (single isomer, unassigned) [Example 100.0, (1S,2S)-N-(4-(2,6-dimethoxyphenyl)-5-((R)-tetrahydrofuran-3-yl)-4H-1,2,4-triazol-3-yl)-1-isopropoxy-1-(5-methylpyrimidin-2-yl)propane-2-sulfonamide or (1S,2S)-N-(4-(2,6-dimethoxyphenyl)-5-((S)-tetrahydrofuran-3-yl)-4H-1,2,4-triazol-3-yl)-1-isopropoxy-1-(5-methylpyrimidin-2-yl)propane-2-sulfonamide]
EC50: 0.024 µM

(1S,2S)-1-(5-chloro-2-pyrimidinyl)-N-(4-cyclopropyl-5-((2S,5S)-5-methyltetrahydro-2-furanyl)-4H-1,2,4-triazol-3-yl)-1-(2-propanyloxy)-2-propanesulfonamide or (1S,2S)-1-(5-chloro-2-pyrimidinyl)-N-(4-cyclopropyl-5-((2R,5R)-5-methyltetrahydro-2-furanyl)-4H-1,2,4-triazol-3-yl)-1-(2-propanyloxy)-2-propanesulfonamide [Example 353.0]
EC50: 0.1 µM

C[C@H](c1ncc(Cl)cn1)[C@H](C)S(=O)(=O)Nc1nnc([C@@H]2CCOC2)n1[C@H](C)c1ccon1 (single isomer, unassigned) [Example 415.0, (2S,3R)-3-(5-chloro-2-pyrimidinyl)-N-(4-((1R)-1-(1,2-oxazol-3-yl)ethyl)-5-((3S)-tetrahydro-3-furanyl)-4H-1,2,4-triazol-3-yl)-2-butanesulfonamide or (2S,3R)-3-(5-chloro-2-pyrimidinyl)-N-(4-((1S)-1-(1,2-oxazol-3-yl)ethyl)-5-((3S)-tetrahydro-3-furanyl)-4H-1,2,4-triazol-3-yl)-2-butanesulfonamide]
EC50: 0.23 µM

(1R,2)S-1-(5-chloropyrimidin-2-yl)-N-(5-((S)-5,5-dimethyltetrahydrofuran-2-yl)-4-(tetrahydro-2H-pyran-4-yl)-4H-1,2,4-triazol-3-yl)-1-methoxypropane-2-sulfonamide or (1R,2S)-1-(5-chloropyrimidin-2-yl)-N-(5-((R)-5,5-dimethyltetrahydrofuran-2-yl)-4-(tetrahydro-2H-pyran-4-yl)-4H-1,2,4-triazol-3-yl)-1-methoxypropane-2-sulfonamide [Example 222.0]
EC50: 0.74 µM

COCC1(n2c(NS(=O)(=O)[C@@H](C)[C@H](OC)c3ncc(Cl)cn3)nnc2[C@H]2CC[C@@H](C)O2)CC1 (single isomer, unassigned) [Example 286.0, (1R,2S)-1-(5-chloropyrimidin-2-yl)-1-methoxy-N-(4-(1-(methoxymethyl)cyclopropyl)-5-((2S,5S)-5-methyltetrahydrofuran-2-yl)-4H-1,2,4-triazol-3-yl)propane-2-sulfonamide or (1R,2S)-1-(5-chloropyrimidin-2-yl)-1-methoxy-N-(4-(1-(methoxymethyl)cyclopropyl)-5-((2R,5R)-5-methyltetrahydrofuran-2-yl)-4H-1,2,4-triazol-3-yl)propane-2-sulfonamide]
EC50: 0.0014 µM

COc1cccc(OC)c1-n1c(NS(=O)(=O)[C@@H](C)[C@H](C)c2ncc(F)cn2)nnc1[C@@H]1COC(C)(C)C1 (single isomer, unassigned) [Example 396.0, (2S,3R)-N-(4-(2,6-dimethoxyphenyl)-5-((3R)-5,5-dimethyltetrahydro-3-furanyl)-4H-1,2,4-triazol-3-yl)-3-(5-fluoro-2-pyrimidinyl)-2-butanesulfonamide or (2S,3R)-N-(4-(2,6-dimethoxyphenyl)-5-((3S)-5,5-dimethyltetrahydro-3-furanyl)-4H-1,2,4-triazol-3-yl)-3-(5-fluoro-2-pyrimidinyl)-2-butanesulfonamide]
EC50: 0.058 µM

COc1cccc(OC)c1-n1c(NS(=O)(=O)[C@@H](C)[C@H](C)c2ncc(C)cn2)nnc1[C@H]1CCCOC1 (single isomer, unassigned) [Example 59.0, (2S,3R)-N-(4-(2,6-dimethoxyphenyl)-5-((R)-tetrahydro-2H-pyran-3-yl)-4H-1,2,4-triazol-3-yl)-3-(5-methylpyrimidin-2-yl)butane-2-sulfonamide or (2S,3R)-N-(4-(2,6-dimethoxyphenyl)-5-((S)-tetrahydro-2H-pyran-3-yl)-4H-1,2,4-triazol-3-yl)-3-(5-methylpyrimidin-2-yl)butane-2-sulfonamide]
EC50: 0.016 µM

(1R,2S)-1-(5-chloropyrimidin-2-yl)-N-(4-(4,6-dimethoxypyrimidin-5-yl)-5-((R)-5,5-dimethyltetrahydrofuran-3-yl)-4H-1,2,4-triazol-3-yl)-1-methoxypropane-2-sulfonamide or (1R,2S)-1-(5-chloropyrimidin-2-yl)-N-(4-(4,6-dimethoxypyrimidin-5-yl)-5-((S)-5,5-dimethyltetrahydrofuran-3-yl)-4H-1,2,4-triazol-3-yl)-1-methoxypropane-2-sulfonamide [Example 315.0]
EC50: 0.085 µM

COc1cccc(OC)c1-n1c(NS(=O)(=O)[C@@H](C)[C@@H](OC(C)C)c2ncc(C)cn2)nnc1[C@H]1CCC(=O)N1C (single isomer, unassigned) [Example 418.0, (1S,2S)-N-(4-(2,6-dimethoxyphenyl)-5-((2R)-1-methyl-5-oxo-2-pyrrolidinyl)-4H-1,2,4-triazol-3-yl)-1-(5-methyl-2-pyrimidinyl)-1-(2-propanyloxy)-2-propanesulfonamide or (1S,2S)-N-(4-(2,6-dimethoxyphenyl)-5-((2S)-1-methyl-5-oxo-2-pyrrolidinyl)-4H-1,2,4-triazol-3-yl)-1-(5-methyl-2-pyrimidinyl)-1-(2-propanyloxy)-2-propanesulfonamide]
EC50: 0.35 µM

COc1cccc(OC)c1-n1c(NS(=O)(=O)[C@@H](C)[C@H](C)c2ncc(C)cn2)nnc1[C@H]1OCC[C@H]1C (single isomer, unassigned) [Example 71.0, (2S,3R)-N-(4-(2,6-dimethoxyphenyl)-5-((2R,3S)-3-methyltetrahydrofuran-2-yl)-4H-1,2,4-triazol-3-yl)-3-(5-methylpyrimidin-2-yl)butane-2-sulfonamide or (2S,3R)-N-(4-(2,6-dimethoxyphenyl)-5-((2S,3R)-3-methyltetrahydrofuran-2-yl)-4H-1,2,4-triazol-3-yl)-3-(5-methylpyrimidin-2-yl)butane-2-sulfonamide]
EC50: 0.45 µM

COCC(COC)n1c(NS(=O)(=O)[C@@H](C)[C@H](OC)c2ncc(Cl)cn2)nnc1[C@@H]1CCCO1 [Example 332.0, (1R,2S)-1-(5-chloro-2-pyrimidinyl)-N-(4-(1,3-dimethoxy-2-propanyl)-5-((2S)-tetrahydro-2-furanyl)-4H-1,2,4-triazol-3-yl)-1-methoxy-2-propanesulfonamide]
EC50: 0.014 µM

COc1ncnc(OC)c1-n1c(NS(=O)(=O)[C@@H](C)[C@H](C)c2cnc(C)cn2)nnc1[C@H]1CCCO1 (single isomer, unassigned) [Example 105.0, (2S,3R)-N-(4-(4,6-dimethoxypyrimidin-5-yl)-5-((S)-tetrahydrofuran-2-yl)-4H-1,2,4-triazol-3-yl)-3-(5-methylpyrazin-2-yl)butane-2-sulfonamide or (2S,3R)-N-(4-(4,6-dimethoxypyrimidin-5-yl)-5-((R)-tetrahydrofuran-2-yl)-4H-1,2,4-triazol-3-yl)-3-(5-methylpyrazin-2-yl)butane-2-sulfonamide]
EC50: 0.088 µM
